# Measured values as given in patent publication US20250073220A1, “ORAL SOLUTION COMPRISING LENALIDOMIDE” (A FINE HOUSE S.A., priority 2021, published 2025).
# Legend:
# [1] = 0.1 N HCl aqueous solution (pH around 1); cited from earlier work
# [2] = Precipitation after preparation of liquid lenalidomide compositions; assay type: physicochemical; settings: a few minutes after lenalidomide was dissolved in an aqueous buffer at pH between 1.0 and 3.5
# Method: A composition was prepared according to example 23 of WO 1998/03502. The solution contained 5.0 g lenalidomide, 22.5 g sodium chloride, 300.0 g phosphate buffer with pH 7.4 and demineralized water. The pH of the final composition was 7.4.
# Similar results (i.e. precipitation) were obtained a few minutes after lenalidomide was dissolved in an aqueous buffer at pH between 1.0 and 3.5.
# Thus, the composition of Trial 0 was not subjected to the stability study.
# The composition of trial 4 was not subjected to the stability study.
smiles,measurement,setting,value
"Nc1cccc2c1CN(C1CCC(=O)NC1=O)C2=O (racemic) [Lenalidomide, 1-oxo-(2,6-dioxopiperidin-3-yl)-4-aminoisoindoline]",solubility,[1],18.0 mg/mL
same,precipitation after dissolution,[2],precipitation
